Reference: patent US20110071197A1, “BIS-ARYL COMPOUNDS FOR USE AS MEDICAMENTS” (priority 2008, published 2011)

target: T1, Recombinant human LTC4 synthase (Homo sapiens, UniProt Q16873); experiment: LTC4 synthase in vitro assay (HTRF detection of LTC4); assay type: biochemical; details: total concentration of title compound in the assay 10 μM; HTRF method
T1 construct: made in house; host or cells: Pichia pastoris
T1 sequence (Q16873 1-150): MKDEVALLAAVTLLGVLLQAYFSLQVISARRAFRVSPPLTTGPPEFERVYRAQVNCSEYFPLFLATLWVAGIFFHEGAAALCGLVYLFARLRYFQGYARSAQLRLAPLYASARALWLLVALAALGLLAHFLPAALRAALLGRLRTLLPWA
Method: Alternatively HTRF detection of LTC4 can be used:
In the assay, LTC4 synthase catalyses the reaction where the substrate LTA4 is converted to LTC4. Recombinant human LTC4 synthase is expressed in Piccia pastoralis and the purified enzyme is dissolved in 25 mM Tris-buffer pH 7.8 supplemented with 0.1 mM glutathione (GSH) and stored at −80° C. The assay is performed in phosphate buffered saline (PBS) pH 7.4 and 5 mM GSH in 384-well plates.
The following is added chronologically to each well: • 1. 48 μl LTC4 synthase in PBS with 5 mM GSH. The total protein concentration in this solution is 0.5 μg/ml. • 2. […] Incubation of the plate at room temperature for 10 minutes. • 4. 1 μl LTA4 (final conc. 2.5 μM). • 5. Incubation of the plate at room temperature for 5 minutes. • 6. 10 μl of the incubation mixture is analysed using homogeneous time resolved fluorescent (HTRF) detection.

| inhibition at 10 µM [%] | Structure (SMILES) | % inh. [%] |
| --- | --- | --- |
| 96 | O=C(O)c1cc(Oc2cccc(Oc3ccc(F)c(F)c3)c2)ccc1Nc1ccc(F)c(F)c1 [Example 28:3, 5-[3-(3,4-Difluoro-phenoxy)-phenoxy]-2-(3,4-difluoro-phenylamino)-benzoic acid] | – |
| 100 | O=C(Nc1ccc(Sc2ccc(NC(=O)c3cccc(Cl)c3)c(C(=O)O)c2)cc1C(=O)O)c1cccc(Cl)c1 [13:2, 2-(3-chlorobenzamido)-5-((4-(3-chlorobenzamido)-3-carboxyphenyl)sulfanyl)benzoic acid] | – |
| 87 | CC(C)Oc1ccc(C(=O)Nc2ccc(Oc3ccc(NC(=O)c4ccccc4)cc3)cc2CC(=O)O)cc1 [17:3, [5-(4-benzoylamino-phenoxy)-2-(4-isopropoxy-benzoyl-amino)-phenyl]-acetic acid] | – |
| 100 | CCCCc1ccc(S(=O)(=O)N(C)c2ccc(Oc3ccc(NC(=O)c4ccc(Cl)cc4Cl)c(C(=O)O)c3)cc2)cc1 [11:7, 5-{4-[(4-butylbenzenesulfonyl)-methylamino]phenoxy}-2-(2,4-dichlorobenzoylamino)benzoic acid] | – |
| 79 | CCCCc1ccc(C(=O)Nc2ccc(Oc3ccc(NC(=O)c4ccc(C(F)(F)F)cc4F)cc3)cc2CC(=O)O)cc1 [17:4, {2-(4-butyl-benzoylamino)-5-[4-(2-fluoro-4-trifluoromethyl-benzoylamino)-phenoxy]-phenyl}-acetic acid] | – |
| 100 | O=C(Nc1ccc([S+]([O-])c2ccc(NC(=O)c3cccc(Cl)c3)c(C(=O)O)c2)cc1C(=O)O)c1cccc(Cl)c1 [15:2, 2-(3-chlorobenzamido)-5-(4-(3-chlorobenzamido)-3-carboxyphenylsulfinyl)benzoic acid] | – |
| 98 | Cc1nc(C(F)(F)F)ccc1C(=O)Nc1ccc(Oc2ccc(NS(=O)(=O)c3cc(Cl)cc(Cl)c3O)c(C(=O)O)c2)cc1 [21:2, 2-(3,5-Dichloro-2-hydroxy-benzene-sulfonylamino)-5-{4-[(2-methyl-6-trifluoromethyl-pyridine-3-carbonyl)-amino]-phenoxy}-benzoic acid] | – |
| 98 | Cc1c(Cl)cccc1S(=O)(=O)Nc1ccc(Oc2cc(Nc3ccc(F)c(F)c3)cc(C(=O)O)c2)cc1 [18:4, 3-[4-(3-Chloro-2-methyl-benzene-sulfonylamino)-phenoxy]-5-(3,4-difluoro-phenylamino)-benzoic acid] | – |
| 99 | COc1ccc(S(=O)(=O)N(C)c2ccc(Oc3ccc(NC(=O)c4cc(Cl)ccc4Cl)c(C(=O)O)c3)cc2)cc1 [11:15, 2-(2,5-Dichloro-benzoylamino)-5-{4-[(4-methoxy-benzenesulfonyl)-methyl-amino]-phenoxy}-benzoic acid] | – |
| 98 | CCCCc1ccc(C(=O)Nc2cccc(Oc3ccc(NC(=O)c4c(F)cccc4F)c(C(=O)O)c3)c2)cc1 [10:1, 5-[(3-(4-(1-butyl)benzoylamino)-phenoxy)]-2-(2,6-difluorobenzoyl-amino)benzoic acid] | – |
| 98 | CCCCc1ccc(C(=O)Nc2ccc(Sc3ccc(NC(=O)c4ccc(CCCC)cc4)c(C(=O)O)c3)cc2C(=O)O)cc1 [13:1, 2-(4-butylbenzamido)-5-((4-(4-butylbenzamido)-3-carboxyphenyl)-sulfanyl)benzoic acid] | – |
| 97 | COc1ccc(S(=O)(=O)N(C)c2ccc(Oc3ccc(NC(=O)c4ccccc4OC(F)(F)F)c(C(=O)O)c3)cc2)cc1 [11:19, 5-{4-[(4-Methoxy-benzenesulfonyl)-methyl-amino]-phenoxy}-2-(2-trifluoromethoxy-benzoylamino)-benzoic acid] | – |
| 98 | O=C(Nc1ccc(C(F)(F)F)cc1)Nc1ccc(Oc2ccc(S(=O)(=O)Nc3ccc(Cl)cc3)cc2)cc1C(=O)O [25:1, 5-[4-(4-Chlorophenylsulfamoyl)-phenoxy]-2-[3-(4-trifluoromethyl-phenyl)ureido]benzoic acid] | – |
| 99 | O=C(O)Cc1cc(Oc2ccc(NC(=O)c3ccccc3)cc2)ccc1NC(=O)c1cccc(Cl)c1Cl [17:2, [5-(4-benzoylamino-phenoxy)-2-(2,3-dichloro-benzoylamino)-phenyl]-acetic acid] | – |
| 99 | Cc1c(Cl)cccc1S(=O)(=O)Nc1ccc(Oc2ccc(Nc3ccc(F)c(F)c3)c(C(=O)O)c2)cn1 [Example 33:2, 5-(6-(3-Chloro-2-methylphenylsulfonamido)pyridin-3-yloxy)-2-(3,4-difluorophenylamino)benzoic acid] | – |
| 100 | O=C(Nc1ccc(Oc2ccc(S(=O)(=O)Nc3ccc(F)c(F)c3)cc2)cc1C(=O)O)c1ccc(Cl)cc1Cl [25:4, 2-(2,4-Dichlorobenzoylamino)-5-[4-(3,4-difluorophenylsulfamoyl)-phenoxy]benzoic acid] | – |

More lines, now with the values behind:

| Structure (SMILES) | inhibition at 10 µM [%] | % inh. [%] |
| --- | --- | --- |
| O=C(Nc1ccc(Oc2ccc(NC(=O)c3cccc(Cl)c3)c(C(=O)O)c2)cc1C(=O)O)c1ccc(SC(F)(F)F)cc1 [2:1, 5-[3-carboxy-4-(4-(trifluoromethylthio)-benzamido)-phenyloxy]-2-(3-chlorobenz-amido)benzoic acid] | – | 98 |
| CCOc1c(Cl)cc(C(F)(F)F)cc1C(=O)Nc1ccc(Oc2ccc(NC(=O)c3ccc(OC(C)C)cc3)c(C(=O)O)c2)cc1CC(=O)O [6:7, 5-[3-carboxymethyl-4-(3-chloro-2-ethoxy-5-tri-fluoromethylbenzoyl-amino)phenoxy]-2-(4-isopropoxybenzoyl-amino)benzoic acid] | 100 | – |
| O=C(Nc1ccc(Oc2ccc([N+](=O)[O-])c(C(=O)O)c2)cc1C(=O)O)c1ccc(C(F)(F)F)cc1 [3:2, 2-nitro-5-[4-(4-trifluoromethyl-benzoylamino)-3-carboxy-phenoxy]benzoic acid] | 86 | – |
| O=C(Nc1ccc(Oc2ccc([N+](=O)[O-])c(C(=O)O)c2)cc1C(=O)O)c1ccccc1 [3:1, 2-benzamido-5-(3-carboxy-4-nitrophenoxy)benzoic acid] | 65 | – |
| CC(C)(C)c1ccc(C(=O)Nc2ccc(Oc3ccc(NC(=O)c4ccc(Cl)nc4Cl)c(C(=O)O)c3)cc2)cc1 [8:20, 5-[4-(4-tert-Butylbenzoyl-amino)phenoxy]-2-[(2,6-di-chloropyridine-3-carbonyl)-amino]benzoic acid] | 96 | – |
| CN(C)c1ccc(C(=O)Nc2ccc(Oc3ccc(NC(=O)c4ccc(C(F)(F)F)cc4)c(C(=O)O)c3)cc2)cc1.Cl [8:6, 5-[4-(4-dimethylaminobenzoyl-amino)phenoxy]-2-(4-trifluoro-methylbenzoylamino)benzoic acid hydrochloride] | – | 97 |
| CCCCc1ccc(C(=O)Nc2ccc(Oc3ccc(NC(=O)c4ccc(C(F)(F)F)cc4)c(C(=O)O)c3)cc2)cc1 [8:4, 5-[4-(4-(butyl)benzoylamino)-phenoxy]-2-(4-trifluoromethyl-benzoylamino)benzoic acid] | 89 | – |
| O=C(O)c1cc(Oc2ccc(Nc3ccc([N+](=O)[O-])cc3)c(C(=O)O)c2)ccc1Nc1ccc(F)cc1 [1:6, 5-[3-carboxy-4-(4-nitrophenyl-amino)phenyloxy]-2-(4-fluoro-phenylamino)benzene-carboxylic acid] | 100 | – |
| CCCCOc1ccc(S(=O)(=O)Nc2ccc(Oc3cccc(C(=O)NS(=O)(=O)c4ccc(F)cc4)c3)cc2C(=O)OC(C)(C)C)cc1 [20:4, 2-(4-Butoxy-benzenesulfonylamino)-5-[3-(4-fluoro-benzenesulfonylamino-carbonyl)-phenoxy]-benzoic acid t-butyl ester] | 99 | – |
| CCCCOc1ccc(S(=O)(=O)Nc2ccc(Oc3ccc(S(=O)(=O)Nc4ccc(Cl)cc4)cc3)cc2C(=O)O)cc1 [25:2, 2-(4-Butoxy-benzenesulfonyl-amino)-5-[4-(4-chlorophenylsulfamoyl)phenoxy]benzoic acid] | 100 | – |
| O=C(Nc1ccc(Oc2ccc(NC(=O)c3cccc(Cl)c3)c(C(=O)O)c2)cc1C(=O)O)c1ccc([N+](=O)[O-])cc1 [2:3, 5-[3-carboxy-4-(4-nitrobenzamido)-phenyloxy]-2-(3-chlorobenzamido)benzoic acid] | 100 | – |
| CCCCc1ccc(C(=O)Nc2ccc(Oc3ccc(NC(=O)c4ccccc4)c(C(=O)O)c3)cc2)cc1 [8:12, 2-benzoylamino-5-[4-(4-butyl-benzoylamino)phenoxy]-benzoic acid] | 99 | – |
| O=C(O)Cc1cc(Oc2ccc(NC(=O)c3ccc(C(F)(F)F)cc3F)c(C(=O)O)c2)ccc1NC(=O)c1cccc(Cl)c1 [6:4, 5-[3-carboxymethyl-4-(3-chloro-benzoylamino)-phenoxy]-2-(2-fluoro-4-trifluoromethylbenzoyl-amino)benzoic acid] | 96 | – |
| CC(C)(C)c1ccc(C(=O)Nc2ccc(Oc3ccc(NC(=O)c4ccccc4Cl)c(C(=O)O)c3)cc2)cc1 [Example 8:15, 5-[4-(4-tert-Butylbenzoyl-amino)phenoxy]-2-(2-chloro-benzoylino)benzoic acid] | – | 98 |
| CCCCOc1ccc(S(=O)(=O)Nc2ccc(Oc3ccc(N(C)C(=O)c4ccccc4)c(C(=O)O)c3)cc2)cc1 [11:9, 2-(benzoylmethylamino)-5-[4-(4-butoxybenzenesulfonylamino)-phenoxy]benzoic acid] | 89 | – |
| CCCCOc1ccc(S(=O)(=O)Nc2ccc(Oc3ccc(Nc4ccc(F)c(F)c4)cc3C(=O)O)cc2C(=O)O)cc1 [Example 1:9, 2-(4-butoxybenzenesulfonyl-amino)-5-[4-(2-carboxy)(3,4-di-fluorophenylamino)phenoxy]-benzoic acid] | – | 100 |
